# Key:
# [1] = system: isolated islets of Langerhans derived from human GPR40 gene transgenic mice of the 47M strain; assay: Insulin secretion from isolated islets of Langerhans of human GPR40 gene transgenic mice (47M strain) with addition of palmitic acid; assay type: cell-based; settings: transgenic mouse 47M strain islets; 0.5 mM palmitic acid, 11 mM glucose, cultured 1 hour; insulin corrected by DNA amount
# Experimental: (§1) Starting at 8 week-old, transgenic mice of the 47M strain and 23F strain were fed with a low-fat diet (D12450B, 10 kcal % fat, manufactured by Research Diets, Inc.) or a high-fat diet (D12492, 60 kcal % fat, manufactured by Research Diets, Inc.) for 8 weeks. Each mouse at 16 week-old had the duodenal side ligated, and the common bile duct cannulated, and a 1 mg/ml collagenase solution (manufactured by Wako Pure Chemical) was injected into the mouse pancreas. The pancreas receiving the injection was excised, placed in a tube containing the same collagenase solution, and shaken at 37° C. for 20 minutes. Subsequently, the solution was vigorously mixed for 30 seconds, and a Quenching buffer solution (Hanks Balanced Salt Solution comprising 0.001% DNaseI and 25 mM HEPES) containing 10% FBS was added to make a total volume of 20 ml. The solution was transferred to a Petri dish, and washed twice with the Quenching buffer solution, after which islets of Langerhans were recovered using a pipette under a microscopy, and this was used as the test sample. […] Meanwhile, after cultivation, islets of Langerhans were disrupted by sonication using a sonicator (manufactured by M & S Instruments Trading Inc.), the amount of DNA was determined using a Quant-iT™ Picogreen ds DNA Assay kit (manufactured by Molecular Probes), and the amount of insulin secreted was corrected.
# [2] = system: isolated islets of Langerhans derived from control mice; assay: Insulin secretion from isolated islets of Langerhans of control mice with addition of palmitic acid; assay type: cell-based, mouse; settings: 0.5 mM palmitic acid, 11 mM glucose, cultured 1 hour, insulin corrected by DNA amount
# Experimental: as §1
compound,measurement,setting,value
CCCCCCCCCCCCCCCC(=O)O [palmitic acid],"amount of insulin secreted, increase compared with the no-addition group",[1],about 6 times
same,"amount of insulin secreted, increase compared with the no-addition group",[2],about 1.5 times

# Source: US20090313709A1, “Genetically Modified Animal and Use Thereof” (priority 2006, published 2009)
